In the supplement of paper PMC10883282:

Key:
Experiment in all cases: relative viability vs DMSO control (72 h) (fraction); higher = more viable cells
A204 = system: A204
Outline: (§1)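 A 5 µM positive control and 0.1% DMSO vehicle ran alongside sarcoma cell lines seeded in 384-well plates to reach 80–90% confluence. Serially diluted compound, 2.5 µl from source plates of 10 mM to 0.0002 mM, was added after 24 h, and the plates were held 72 h at 37 °C, 5% CO2. Relative viability was worked out from ATPLite readings as percent growth averaged over up to triplicate wells. The values were rescaled so that 1 is full and 0 is none.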

G401 = system: G401
Outline: as §1

HS729 = system: HS729
Outline: as §1

HT1080 = system: HT1080
Outline: as §1

KHOS-NP = system: KHOS-NP
Outline: as §1

RD-ES = system: RD-ES
Outline: as §1

SK-ES-1 = system: SK-ES-1
Outline: as §1

SK-LMS-1 = system: SK-LMS-1
Outline: as §1

SW684 = system: SW684
Outline: as §1

SW872 = system: SW872
Outline: as §1

SW982 = system: SW982
Outline: as §1

VA-ES-BJ = system: VA-ES-BJ
Outline: as §1

Clc1ccc(Nc2nnc(Cc3ccncc3)c3ccccc23)cc1 [Vatalanib]
Details	relative viability
A204, 0.00017 µM	1.05
A204, 0.00051 µM	1.09
A204, 0.00152 µM	1.04
A204, 0.00457 µM	1.03
A204, 0.01372 µM	1.04
A204, 0.04115 µM	1.02
A204, 0.1235 µM	0.972
A204, 0.3704 µM	0.904
A204, 1.111 µM	0.7796
A204, 3.333 µM	0.483
A204, 10 µM	0.365
G401, 0.00017 µM	0.965
G401, 0.00051 µM	0.975
G401, 0.00152 µM	0.954
G401, 0.00457 µM	0.973
G401, 0.01372 µM	0.979
G401, 0.04115 µM	1
G401, 0.1235 µM	0.947
G401, 0.3704 µM	0.985
G401, 1.111 µM	0.933
G401, 3.333 µM	0.876
G401, 10 µM	0.7239
HS729, 0.00017 µM	0.874
HS729, 0.00051 µM	0.906
HS729, 0.00152 µM	0.915
HS729, 0.00457 µM	0.88
HS729, 0.01372 µM	0.916
HS729, 0.04115 µM	0.896
HS729, 0.1235 µM	0.864
HS729, 0.3704 µM	0.871
HS729, 1.111 µM	0.832
HS729, 3.333 µM	0.898
HS729, 10 µM	0.934
HT1080, 0.00017 µM	1.01
HT1080, 0.00051 µM	0.995
HT1080, 0.00152 µM	0.989
HT1080, 0.00457 µM	1.01
HT1080, 0.01372 µM	0.993
HT1080, 0.04115 µM	0.9838
HT1080, 0.1235 µM	0.986
HT1080, 0.3704 µM	1
HT1080, 1.111 µM	1.021
HT1080, 3.333 µM	1.02
HT1080, 10 µM	1.07
KHOS-NP, 0.00017 µM	1.041
KHOS-NP, 0.00051 µM	1.054
KHOS-NP, 0.00152 µM	1.04
KHOS-NP, 0.00457 µM	1.06
KHOS-NP, 0.01372 µM	1.03
KHOS-NP, 0.04115 µM	1.05
KHOS-NP, 0.1235 µM	1.058
KHOS-NP, 0.3704 µM	1.062
KHOS-NP, 1.111 µM	1.07
KHOS-NP, 3.333 µM	1.07
KHOS-NP, 10 µM	1.08
RD-ES, 0.00017 µM	0.987
RD-ES, 0.00051 µM	0.954
RD-ES, 0.00152 µM	0.975
RD-ES, 0.00457 µM	0.983
RD-ES, 0.01372 µM	0.967
RD-ES, 0.04115 µM	0.959
RD-ES, 0.1235 µM	0.965
RD-ES, 0.3704 µM	0.956
RD-ES, 1.111 µM	0.989
RD-ES, 3.333 µM	0.98
RD-ES, 10 µM	0.947
SK-ES-1, 0.00017 µM	0.978
SK-ES-1, 0.00051 µM	0.987
SK-ES-1, 0.00152 µM	0.968
SK-ES-1, 0.00457 µM	1.04
SK-ES-1, 0.01372 µM	1.03
SK-ES-1, 0.04115 µM	1.01
SK-ES-1, 0.1235 µM	0.995
SK-ES-1, 0.3704 µM	1.04
SK-ES-1, 1.111 µM	1.05
SK-ES-1, 3.333 µM	1.02
SK-ES-1, 10 µM	0.91
SK-LMS-1, 0.00017 µM	1.03
SK-LMS-1, 0.00051 µM	1.02
SK-LMS-1, 0.00152 µM	0.992
SK-LMS-1, 0.00457 µM	1
SK-LMS-1, 0.01372 µM	1.026
SK-LMS-1, 0.04115 µM	1
SK-LMS-1, 0.1235 µM	1.016
SK-LMS-1, 0.3704 µM	0.9565
SK-LMS-1, 1.111 µM	0.967
SK-LMS-1, 3.333 µM	0.938
SK-LMS-1, 10 µM	0.858
SW684, 0.00017 µM	1.13
SW684, 0.00051 µM	1.0999
SW684, 0.00152 µM	1.09
SW684, 0.00457 µM	1.11
SW684, 0.01372 µM	1.11
SW684, 0.04115 µM	1.1
SW684, 0.1235 µM	1.08
SW684, 0.3704 µM	1.12
SW684, 1.111 µM	1.09
SW684, 3.333 µM	1.03
SW684, 10 µM	1.03
SW872, 0.00017 µM	1.01
SW872, 0.00051 µM	1.01
SW872, 0.00152 µM	1.02
SW872, 0.00457 µM	1.026
SW872, 0.01372 µM	0.9937
SW872, 0.04115 µM	1.02
SW872, 0.1235 µM	1.022
SW872, 0.3704 µM	1.021
SW872, 1.111 µM	1.02
SW872, 3.333 µM	1.03
SW872, 10 µM	0.971
SW982, 0.00017 µM	1.03
SW982, 0.00051 µM	1.02
SW982, 0.00152 µM	1.04
SW982, 0.00457 µM	1.05
SW982, 0.01372 µM	1.06
SW982, 0.04115 µM	1.0899
SW982, 0.1235 µM	1.065
SW982, 0.3704 µM	1.04
SW982, 1.111 µM	1.03
SW982, 3.333 µM	1.053
SW982, 10 µM	1.03
VA-ES-BJ, 0.00017 µM	1.01
VA-ES-BJ, 0.00051 µM	1.01
VA-ES-BJ, 0.00152 µM	1
VA-ES-BJ, 0.00457 µM	1.04
VA-ES-BJ, 0.01372 µM	1.02
VA-ES-BJ, 0.04115 µM	1.02
VA-ES-BJ, 0.1235 µM	1.03
VA-ES-BJ, 0.3704 µM	1.05
VA-ES-BJ, 1.111 µM	1.02
VA-ES-BJ, 3.333 µM	1.07
VA-ES-BJ, 10 µM	1.05

COc1cc(CCc2cc(NC(=O)c3ccc(N4CC(C)NC(C)C4)cc3)n[nH]2)cc(OC)c1 (centres undefined) [AZD-4547]
Details	relative viability
A204, 0.00017 µM	1.04
A204, 0.00051 µM	1.06
A204, 0.00152 µM	1.04
A204, 0.00457 µM	1.02
A204, 0.01372 µM	1.02
A204, 0.04115 µM	0.841
A204, 0.1235 µM	0.714
A204, 0.3704 µM	0.625
A204, 1.111 µM	0.556
A204, 3.333 µM	0.463
A204, 10 µM	0.274
G401, 0.00017 µM	1
G401, 0.00051 µM	0.999
G401, 0.00152 µM	0.964
G401, 0.00457 µM	0.976
G401, 0.01372 µM	0.9
G401, 0.04115 µM	0.845
G401, 0.1235 µM	0.706
G401, 0.3704 µM	0.589
G401, 1.111 µM	0.486
G401, 3.333 µM	0.356
G401, 10 µM	0.136
HS729, 0.00017 µM	1.02
HS729, 0.00051 µM	0.918
HS729, 0.00152 µM	0.914
HS729, 0.00457 µM	0.901
HS729, 0.01372 µM	0.827
HS729, 0.04115 µM	0.83
HS729, 0.1235 µM	0.65
HS729, 0.3704 µM	0.627
HS729, 1.111 µM	0.57
HS729, 3.333 µM	0.473
HS729, 10 µM	0.265
HT1080, 0.00017 µM	1.085
HT1080, 0.00051 µM	1.1
HT1080, 0.00152 µM	1.08
HT1080, 0.00457 µM	1.07
HT1080, 0.01372 µM	1.06
HT1080, 0.04115 µM	1.01
HT1080, 0.1235 µM	1.04
HT1080, 0.3704 µM	1.08
HT1080, 1.111 µM	1.04
HT1080, 3.333 µM	1.04
HT1080, 10 µM	0.859
KHOS-NP, 0.00017 µM	1.079
KHOS-NP, 0.00051 µM	1.1
KHOS-NP, 0.00152 µM	1.07
KHOS-NP, 0.00457 µM	1.08
KHOS-NP, 0.01372 µM	1.048
KHOS-NP, 0.04115 µM	1.03
KHOS-NP, 0.1235 µM	1.03
KHOS-NP, 0.3704 µM	1.01
KHOS-NP, 1.111 µM	1.02
KHOS-NP, 3.333 µM	1
KHOS-NP, 10 µM	0.927
RD-ES, 0.00017 µM	0.946
RD-ES, 0.00051 µM	0.96
RD-ES, 0.00152 µM	0.959
RD-ES, 0.00457 µM	0.961
RD-ES, 0.01372 µM	0.95
RD-ES, 0.04115 µM	0.9048
RD-ES, 0.1235 µM	0.89
RD-ES, 0.3704 µM	0.871
RD-ES, 1.111 µM	0.808
RD-ES, 3.333 µM	0.6084
RD-ES, 10 µM	0.173
SK-ES-1, 0.00017 µM	1.02
SK-ES-1, 0.00051 µM	1.02
SK-ES-1, 0.00152 µM	1.01
SK-ES-1, 0.00457 µM	1
SK-ES-1, 0.01372 µM	1.05
SK-ES-1, 0.04115 µM	0.947
SK-ES-1, 0.1235 µM	0.928
SK-ES-1, 0.3704 µM	0.878
SK-ES-1, 1.111 µM	0.821
SK-ES-1, 3.333 µM	0.483
SK-ES-1, 10 µM	0.141
SK-LMS-1, 0.00017 µM	0.9811
SK-LMS-1, 0.00051 µM	0.953
SK-LMS-1, 0.00152 µM	0.944
SK-LMS-1, 0.00457 µM	0.993
SK-LMS-1, 0.01372 µM	0.938
SK-LMS-1, 0.04115 µM	0.991
SK-LMS-1, 0.1235 µM	0.954
SK-LMS-1, 0.3704 µM	0.9652
SK-LMS-1, 1.111 µM	0.986
SK-LMS-1, 3.333 µM	0.965
SK-LMS-1, 10 µM	0.645
SW684, 0.00017 µM	1.11
SW684, 0.00051 µM	1.1
SW684, 0.00152 µM	1.12
SW684, 0.00457 µM	1.14
SW684, 0.01372 µM	1.07
SW684, 0.04115 µM	1.07
SW684, 0.1235 µM	1.06
SW684, 0.3704 µM	1.06
SW684, 1.111 µM	1.08
SW684, 3.333 µM	1.08
SW684, 10 µM	0.999
SW872, 0.00017 µM	1.05
SW872, 0.00051 µM	1
SW872, 0.00152 µM	1
SW872, 0.00457 µM	0.991
SW872, 0.01372 µM	0.987
SW872, 0.04115 µM	0.976
SW872, 0.1235 µM	0.963
SW872, 0.3704 µM	0.954
SW872, 1.111 µM	0.926
SW872, 3.333 µM	0.725
SW872, 10 µM	0.465
SW982, 0.00017 µM	1
SW982, 0.00051 µM	1
SW982, 0.00152 µM	1.02
SW982, 0.00457 µM	1.018
SW982, 0.01372 µM	0.982
SW982, 0.04115 µM	1
SW982, 0.1235 µM	1
SW982, 0.3704 µM	0.995
SW982, 1.111 µM	0.922
SW982, 3.333 µM	0.591
SW982, 10 µM	0.206
VA-ES-BJ, 0.00017 µM	1.05
VA-ES-BJ, 0.00051 µM	1.01
VA-ES-BJ, 0.00152 µM	1.03
VA-ES-BJ, 0.00457 µM	1.02
VA-ES-BJ, 0.01372 µM	1.01
VA-ES-BJ, 0.04115 µM	0.975
VA-ES-BJ, 0.1235 µM	0.983
VA-ES-BJ, 0.3704 µM	1.02
VA-ES-BJ, 1.111 µM	1.07
VA-ES-BJ, 3.333 µM	0.987
VA-ES-BJ, 10 µM	0.681
